Converted amounts (≈) assume the structure as drawn. Read-outs that look alike come from different tables or passages of the source.
What was measured:
B. anthracis [1] = settings: approved or proposed for post-exposure anthrax indications; cited from earlier work
[2] = test system: L. pneumophila strain ATCC 33153; assay: microbe, parasite or virus in culture; type: cell-based; settings: Legionella pneumophila
[3] = in vivo
B. pseudomallei = assay: microbe, parasite or virus in culture; type: cell-based
in vivo [4] = settings: rat
[5] = test system: L. monocytogenes strain EGD; assay: microbe, parasite or virus in culture; type: cell-based; settings: Listeria monocytogenes
in vivo [6] = settings: rodents and non human primates
B. anthracis [7] = assay: microbe, parasite or virus in culture; type: cell-based
F. tularensis = assay: microbe, parasite or virus in culture; type: cell-based
Y. pestis = assay: microbe, parasite or virus in culture; type: cell-based
in vivo [8] = settings: monkey
clinical = settings: in vivo
B. mallei = assay: microbe, parasite or virus in culture; type: cell-based
[9] = ATCC33153, pH 6.5, read-out: MIC, L. pneumophila, pH-adjusted broth
[10] = ATCC33153, pH 7.4, read-out: MIC, L. pneumophila, pH-adjusted broth
[11] = ATCC33153, read-out: MIC, L. pneumophila
[12] = read-out: MIC, L. monocytogenes

CC[C@H]1OC(=O)[C@H](C)C(=O)[C@H](C)[C@@H](O[C@@H]2O[C@H](C)C[C@H](N(C)C)[C@H]2O)[C@](C)(OC/C=C/c2cnc3ccccc3c2)C[C@@H](C)C(=O)[C@H](C)[C@H]2NC(=O)O[C@@]21C [cethromycin]
MIC90 against B. anthracis, comparator antibiotics (B. anthracis [1]): 0.063 µg/mL (≈ 0.0823 µM)

CC[C@H]1OC(=O)[C@H](C)[C@@H](O[C@H]2C[C@@](C)(OC)[C@@H](O)[C@H](C)O2)[C@H](C)[C@@H](O[C@@H]2O[C@H](C)C[C@H](N(C)C)[C@H]2O)[C@](C)(OC)C[C@@H](C)C(=O)[C@H](C)[C@@H](O)[C@]1(C)O [CLR, Clarithromycin]
MIC ([2]; ATCC33153): 0.007 µg/mL (≈ 0.00936 µM)
bioload when the time after the last dose was extended [3]: bioload increases

O=C(O)c1cn(C2CC2)c2cc(N3CCNCC3)c(F)cc2c1=O [ciprofloxacin]
MIC90 against B. anthracis, comparator antibiotics (B. anthracis [1]): 0.031 µg/mL (≈ 0.0936 µM)

CC[C@H]1OC(=O)[C@@](C)(F)C(=O)[C@H](C)[C@@H](OC2OC(C)CC(N(C)C)C2O)[C@@](C)(OC)C[C@@H](C)C(=O)[C@H](C)[C@H]2N(CCCCn3cc(-c4cccc(N)c4)nn3)C(=O)O[C@]12C (some centres unmarked) [CEM-101, 11-N-4-(3-aminophenyl)-[1,2,3]triazol-1-yl]-butyl}-5-desosaminyl-3-oxo-2-fluoro-erythronolide A,-11,12-cyclic carbamate]
MIC ([2]; ATCC33153): 0.004 µg/mL (≈ 0.00473 µM)
MIC [2, 9]: 0.01 µg/mL (≈ 0.0118 µM)
MIC [2, 10]: 0.005 µg/mL (≈ 0.00592 µM)
MIC [2, 11]: 0.004 µg/mL (≈ 0.00473 µM)
MIC Range (B. pseudomallei; B. pseudomallei, 30 strains): 16 µg/mL (≈ 18.9 µM)
MIC50 (B. pseudomallei; Burkholderia pseudomallei): 16 µg/mL (≈ 18.9 µM)
MIC90 (B. pseudomallei; Burkholderia pseudomallei): 16 µg/mL (≈ 18.9 µM)
Kp (in vivo [4]): 5
MIC [5]: 0.004 µg/mL (≈ 0.00473 µM)
MIC ([5]; pH 7.4, read-out: MIC, L. monocytogenes (EDG), pH-adjusted broth): 0.0039 µg/mL (≈ 0.00462 µM)
MIC [5, 12]: 0.004 µg/mL (≈ 0.00473 µM)
Kp (in vivo [6]): 17 to 100
MIC Range (B. anthracis [7]; B. anthracis, 30 strains): <0.008 to 0.015 µg/mL
MIC50 (B. anthracis [7]; Bacillus anthracis): < 0.008 µg/mL
MIC90 (B. anthracis [7]; Bacillus anthracis): < 0.008 µg/mL
MIC Range (F. tularensis; F. tularensis, 30 strains): <0.08 to 4 µg/mL
MIC50 (F. tularensis; Francisella tularensis): 0.03 µg/mL (≈ 0.0355 µM)
MIC90 (F. tularensis; Francisella tularensis): 2 µg/mL (≈ 2.37 µM)
MIC Range (Y. pestis; Y. pestis, 30 strains): 0.25 to 2 µg/mL
MIC50 (Y. pestis; Yersinia pestis): 1 µg/mL (≈ 1.18 µM)
MIC90 (Y. pestis; Yersinia pestis): 2 µg/mL (≈ 2.37 µM)
Kp (in vivo [8]): 54
AUC (clinical): 40 to 28600 ng·h/mL
Cmax (clinical): 22 to 1960 ng/mL
Tmax (clinical): 1.5 to 6 h
half-life (clinical): 2.2 to 7.9 h
MIC Range (B. mallei; B. mallei, 30 strains): 0.25 to 2 µg/mL
MIC50 (B. mallei; Burkholderia mallei): 1 µg/mL (≈ 1.18 µM)
MIC90 (B. mallei; Burkholderia mallei): 1 µg/mL (≈ 1.18 µM)

CC[C@H]1OC(=O)[C@H](C)C(=O)[C@H](C)[C@@H](O[C@@H]2O[C@H](C)C[C@H](N(C)C)[C@H]2O)[C@](C)(OC)C[C@@H](C)C(=O)[C@H](C)[C@H]2N(CCCCn3cnc(-c4cccnc4)c3)C(=O)O[C@]12C [TEL, Telithromycin]
MIC ([2]; ATCC33153): 0.007 µg/mL (≈ 0.00862 µM)
bioload when the time after the last dose was extended [3]: bioload increases

CC[C@H]1OC(=O)[C@H](C)[C@@H](O[C@H]2C[C@@](C)(OC)[C@@H](O)[C@H](C)O2)[C@H](C)[C@@H](O[C@@H]2O[C@H](C)C[C@H](N(C)C)[C@H]2O)[C@](C)(O)C[C@@H](C)CN(C)[C@H](C)[C@@H](O)[C@]1(C)O [AZI, Azithromycin]
MIC ([2]; ATCC33153): 0.016 µg/mL (≈ 0.0214 µM)
MIC [2, 9]: 0.25 µg/mL (≈ 0.334 µM)
MIC [2, 10]: ~0.01 µg/mL (≈ 0.0134 µM)
MIC [2, 11]: 0.016 µg/mL (≈ 0.0214 µM)
MIC [5]: 1 µg/mL (≈ 1.34 µM)
MIC [5, 12]: 1 µg/mL (≈ 1.34 µM)
